Results taken from ChEMBL document CHEMBL5291721, “A preclinical secondary pharmacology resource illuminates target-adverse drug reaction associations of marketed drugs” (Nat Commun, 2023).

Key:
[1] = biological target: T1, Amine oxidase [flavin-containing] A (Homo sapiens, UniProt P21397); assay type: functional
T1 sequence (P21397 whole entry): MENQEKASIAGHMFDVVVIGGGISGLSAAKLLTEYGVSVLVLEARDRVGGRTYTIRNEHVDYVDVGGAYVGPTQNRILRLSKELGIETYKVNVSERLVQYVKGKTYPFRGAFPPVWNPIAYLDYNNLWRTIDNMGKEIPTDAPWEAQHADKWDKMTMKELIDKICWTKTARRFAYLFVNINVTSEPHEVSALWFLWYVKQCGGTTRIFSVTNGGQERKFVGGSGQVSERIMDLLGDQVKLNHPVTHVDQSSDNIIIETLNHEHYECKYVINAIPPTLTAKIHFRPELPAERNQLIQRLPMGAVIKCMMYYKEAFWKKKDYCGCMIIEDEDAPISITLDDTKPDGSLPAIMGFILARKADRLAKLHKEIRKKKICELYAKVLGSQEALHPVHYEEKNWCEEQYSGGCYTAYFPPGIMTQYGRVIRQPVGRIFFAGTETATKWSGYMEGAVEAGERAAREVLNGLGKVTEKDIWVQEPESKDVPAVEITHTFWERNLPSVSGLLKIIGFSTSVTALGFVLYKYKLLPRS

[2] = biological target: T2, Alpha-1A adrenergic receptor (Homo sapiens, UniProt P35348); assay type: functional, cell-based
T2 sequence (P35348 whole entry): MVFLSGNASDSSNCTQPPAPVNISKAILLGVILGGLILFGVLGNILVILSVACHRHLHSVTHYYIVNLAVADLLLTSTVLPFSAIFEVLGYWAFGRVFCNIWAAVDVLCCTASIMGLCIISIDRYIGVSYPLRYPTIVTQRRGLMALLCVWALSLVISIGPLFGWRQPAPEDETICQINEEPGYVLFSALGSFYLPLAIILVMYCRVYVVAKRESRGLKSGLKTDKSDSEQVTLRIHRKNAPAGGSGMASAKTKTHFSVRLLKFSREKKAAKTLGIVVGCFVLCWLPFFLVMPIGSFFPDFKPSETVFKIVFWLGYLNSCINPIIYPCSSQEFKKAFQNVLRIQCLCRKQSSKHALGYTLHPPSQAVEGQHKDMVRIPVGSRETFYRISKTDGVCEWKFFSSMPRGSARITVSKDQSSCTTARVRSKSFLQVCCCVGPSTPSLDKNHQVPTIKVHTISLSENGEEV

Progesterone receptor = biological target: T3, Progesterone receptor (Homo sapiens, UniProt P06401)
T3 sequence (P06401 whole entry): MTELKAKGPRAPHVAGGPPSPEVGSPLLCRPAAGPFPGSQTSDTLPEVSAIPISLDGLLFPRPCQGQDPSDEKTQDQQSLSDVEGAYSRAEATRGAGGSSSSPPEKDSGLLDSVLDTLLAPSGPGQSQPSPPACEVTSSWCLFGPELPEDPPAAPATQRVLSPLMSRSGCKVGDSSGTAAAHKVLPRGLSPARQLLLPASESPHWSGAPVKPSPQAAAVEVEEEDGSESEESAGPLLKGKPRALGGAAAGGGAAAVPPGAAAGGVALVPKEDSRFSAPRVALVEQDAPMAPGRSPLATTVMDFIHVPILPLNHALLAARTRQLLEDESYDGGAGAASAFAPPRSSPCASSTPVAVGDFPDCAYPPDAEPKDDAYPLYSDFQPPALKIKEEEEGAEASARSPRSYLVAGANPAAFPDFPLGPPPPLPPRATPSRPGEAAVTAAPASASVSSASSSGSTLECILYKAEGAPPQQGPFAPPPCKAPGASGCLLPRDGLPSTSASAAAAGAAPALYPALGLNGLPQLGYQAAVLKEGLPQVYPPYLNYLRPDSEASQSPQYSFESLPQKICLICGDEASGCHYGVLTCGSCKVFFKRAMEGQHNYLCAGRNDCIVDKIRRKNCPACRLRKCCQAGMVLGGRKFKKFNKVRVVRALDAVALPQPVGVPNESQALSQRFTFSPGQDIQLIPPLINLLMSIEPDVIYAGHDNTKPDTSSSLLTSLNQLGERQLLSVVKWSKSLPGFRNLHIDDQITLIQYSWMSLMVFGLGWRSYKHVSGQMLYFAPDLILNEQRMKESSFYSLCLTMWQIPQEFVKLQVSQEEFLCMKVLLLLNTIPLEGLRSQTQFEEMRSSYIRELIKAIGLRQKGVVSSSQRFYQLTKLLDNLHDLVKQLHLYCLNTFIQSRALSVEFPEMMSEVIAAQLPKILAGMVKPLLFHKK

[3] = biological target: cGMP-inhibited 3',5'-cyclic phosphodiesterase 3A (Homo sapiens, UniProt Q14432); assay type: functional
[4] = biological target: T4, 5-hydroxytryptamine receptor 2B (Homo sapiens, UniProt P41595); assay type: functional, cell-based
D(3) dopamine receptor = D(3) dopamine receptor (Homo sapiens, UniProt P35462)
[5] = biological target: T2, Alpha-1A adrenergic receptor; assay type: functional, cell-based; remark: listed apart in the source
[6] = biological target: 3',5'-cyclic-AMP phosphodiesterase 4A (Homo sapiens, UniProt P27815); assay type: functional
[7] = biological target: T5, Corticotropin-releasing factor receptor 1 (Homo sapiens, UniProt P34998)
T5 sequence (P34998 whole entry): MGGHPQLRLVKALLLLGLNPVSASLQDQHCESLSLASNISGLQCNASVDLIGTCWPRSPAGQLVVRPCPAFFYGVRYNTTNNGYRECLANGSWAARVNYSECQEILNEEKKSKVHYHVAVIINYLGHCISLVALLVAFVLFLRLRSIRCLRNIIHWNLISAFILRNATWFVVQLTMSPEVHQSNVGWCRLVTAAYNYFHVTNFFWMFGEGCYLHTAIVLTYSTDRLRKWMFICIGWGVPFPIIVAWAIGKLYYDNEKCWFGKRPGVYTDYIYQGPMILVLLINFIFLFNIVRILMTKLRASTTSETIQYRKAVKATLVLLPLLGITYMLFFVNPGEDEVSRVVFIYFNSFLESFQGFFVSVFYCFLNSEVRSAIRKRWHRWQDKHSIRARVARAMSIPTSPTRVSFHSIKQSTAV

[8] = biological target: T4, 5-hydroxytryptamine receptor 2B
Further: assay procedure not described here.

T4 sequence (P41595 whole entry): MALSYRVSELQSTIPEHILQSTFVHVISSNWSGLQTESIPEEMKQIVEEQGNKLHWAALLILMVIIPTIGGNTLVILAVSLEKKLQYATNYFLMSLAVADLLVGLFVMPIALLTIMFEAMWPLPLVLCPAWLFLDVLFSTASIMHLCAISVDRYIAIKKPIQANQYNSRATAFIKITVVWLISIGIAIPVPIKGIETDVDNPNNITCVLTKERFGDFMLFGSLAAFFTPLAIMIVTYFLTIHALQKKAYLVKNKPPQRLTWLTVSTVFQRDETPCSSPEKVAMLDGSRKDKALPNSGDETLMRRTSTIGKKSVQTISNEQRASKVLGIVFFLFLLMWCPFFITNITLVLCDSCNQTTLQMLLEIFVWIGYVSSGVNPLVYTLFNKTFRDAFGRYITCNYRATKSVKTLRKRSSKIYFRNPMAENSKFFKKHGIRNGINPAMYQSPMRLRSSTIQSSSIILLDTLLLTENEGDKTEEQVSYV
D(3) dopamine receptor, sequence (P35462 whole entry): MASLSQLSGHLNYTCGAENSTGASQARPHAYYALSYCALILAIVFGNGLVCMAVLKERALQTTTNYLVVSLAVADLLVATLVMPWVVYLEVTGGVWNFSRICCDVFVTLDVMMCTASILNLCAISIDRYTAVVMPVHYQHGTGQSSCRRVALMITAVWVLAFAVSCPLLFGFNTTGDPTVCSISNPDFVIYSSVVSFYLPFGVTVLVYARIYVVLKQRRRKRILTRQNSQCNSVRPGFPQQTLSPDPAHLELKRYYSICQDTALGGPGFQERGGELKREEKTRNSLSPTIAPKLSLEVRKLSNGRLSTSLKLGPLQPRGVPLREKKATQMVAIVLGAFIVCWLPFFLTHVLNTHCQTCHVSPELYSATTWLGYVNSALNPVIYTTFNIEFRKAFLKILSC
3',5'-cyclic-AMP phosphodiesterase 4A, sequence (P27815 whole entry): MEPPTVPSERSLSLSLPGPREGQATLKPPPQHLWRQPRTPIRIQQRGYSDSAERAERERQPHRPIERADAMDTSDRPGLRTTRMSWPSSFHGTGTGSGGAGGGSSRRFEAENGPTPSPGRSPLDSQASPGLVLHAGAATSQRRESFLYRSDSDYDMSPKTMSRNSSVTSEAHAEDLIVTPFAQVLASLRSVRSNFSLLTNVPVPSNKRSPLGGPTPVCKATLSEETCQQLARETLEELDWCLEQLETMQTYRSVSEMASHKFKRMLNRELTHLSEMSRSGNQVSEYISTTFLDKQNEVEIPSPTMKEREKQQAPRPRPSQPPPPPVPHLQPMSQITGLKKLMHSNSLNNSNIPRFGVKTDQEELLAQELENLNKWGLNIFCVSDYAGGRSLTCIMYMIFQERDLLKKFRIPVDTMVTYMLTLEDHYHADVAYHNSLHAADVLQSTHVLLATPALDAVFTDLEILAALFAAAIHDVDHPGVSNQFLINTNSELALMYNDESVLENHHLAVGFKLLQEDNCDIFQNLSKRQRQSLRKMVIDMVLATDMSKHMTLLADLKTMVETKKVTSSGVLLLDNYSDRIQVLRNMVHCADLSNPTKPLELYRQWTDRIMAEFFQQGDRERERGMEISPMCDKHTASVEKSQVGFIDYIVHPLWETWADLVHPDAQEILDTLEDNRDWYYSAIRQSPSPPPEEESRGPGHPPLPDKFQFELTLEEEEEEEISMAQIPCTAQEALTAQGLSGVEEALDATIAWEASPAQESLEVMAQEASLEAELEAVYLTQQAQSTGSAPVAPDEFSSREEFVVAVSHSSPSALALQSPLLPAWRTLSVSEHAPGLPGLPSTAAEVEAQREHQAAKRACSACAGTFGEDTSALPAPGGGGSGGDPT
cGMP-inhibited 3',5'-cyclic phosphodiesterase 3A, sequence (Q14432 whole entry): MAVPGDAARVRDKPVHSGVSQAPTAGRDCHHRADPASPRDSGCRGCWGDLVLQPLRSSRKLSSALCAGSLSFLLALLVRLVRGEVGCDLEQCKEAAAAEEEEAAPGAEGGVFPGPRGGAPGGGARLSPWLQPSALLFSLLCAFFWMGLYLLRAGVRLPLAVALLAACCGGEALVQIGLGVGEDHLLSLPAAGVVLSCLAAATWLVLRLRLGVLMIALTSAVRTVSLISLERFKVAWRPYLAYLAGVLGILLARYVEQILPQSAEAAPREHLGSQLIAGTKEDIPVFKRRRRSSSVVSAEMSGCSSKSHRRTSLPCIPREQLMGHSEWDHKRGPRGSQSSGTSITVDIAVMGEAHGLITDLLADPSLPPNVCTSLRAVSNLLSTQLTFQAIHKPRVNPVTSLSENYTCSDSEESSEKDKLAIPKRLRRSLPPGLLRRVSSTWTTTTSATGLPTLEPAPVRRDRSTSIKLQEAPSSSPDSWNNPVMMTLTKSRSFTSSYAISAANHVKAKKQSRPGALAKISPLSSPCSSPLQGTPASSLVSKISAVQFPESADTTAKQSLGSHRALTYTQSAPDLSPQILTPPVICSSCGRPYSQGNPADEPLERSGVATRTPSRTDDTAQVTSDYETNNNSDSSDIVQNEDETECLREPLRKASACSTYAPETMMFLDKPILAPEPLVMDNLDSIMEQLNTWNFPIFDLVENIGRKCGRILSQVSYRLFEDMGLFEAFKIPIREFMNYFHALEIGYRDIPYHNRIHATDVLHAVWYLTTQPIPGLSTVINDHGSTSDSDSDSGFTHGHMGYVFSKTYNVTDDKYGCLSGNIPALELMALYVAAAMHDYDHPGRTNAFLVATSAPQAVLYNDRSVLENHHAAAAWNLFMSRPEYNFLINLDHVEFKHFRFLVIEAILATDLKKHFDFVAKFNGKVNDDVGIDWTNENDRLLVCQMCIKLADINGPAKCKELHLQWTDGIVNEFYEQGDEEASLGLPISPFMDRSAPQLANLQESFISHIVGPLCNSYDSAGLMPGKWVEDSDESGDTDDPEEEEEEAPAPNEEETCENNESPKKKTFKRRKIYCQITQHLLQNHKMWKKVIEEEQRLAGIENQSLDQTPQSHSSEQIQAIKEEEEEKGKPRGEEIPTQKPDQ

SMILES | AC50 [1] | AC50 [2] | AC50 (Progesterone receptor) | AC50 [3] | AC50 [4] | AC50 (D(3) dopamine receptor) | AC50 [5] | AC50 [6] | AC50 [7] | AC50 [8]
O=C(O)CCCCC1CCSS1 (stereo not drawn) [LIPOIC ACID, ALPHA] | > 30 µM | > 30 µM | > 30 µM | > 30 µM | > 30 µM | > 30 µM | > 30 µM | > 30 µM | – | –
Nc1c2ccccc2nc2ccccc12 [AMINACRINE] | > 30 µM | > 30 µM | > 30 µM | > 30 µM | > 30 µM | > 30 µM | 9.77 µM | > 30 µM | – | –
Cn1cnc2c(F)c(Nc3ccc(Br)cc3Cl)c(C(=O)NOCCO)cc21 [SELUMETINIB] | – | – | – | – | – | – | – | – | – | > 10 µM

Now from value to molecule:

AC50 [1] | AC50 [2] | AC50 (Progesterone receptor) | AC50 [3] | AC50 [4] | AC50 (D(3) dopamine receptor) | AC50 [5] | AC50 [6] | AC50 [7] | AC50 [8] | SMILES
– | – | – | – | – | – | – | – | > 30 µM | – | CC(=O)OCC(=O)[C@@]1(O)[C@H](C)C[C@H]2[C@@H]3CCC4=CC(=O)C=C[C@]4(C)[C@@]3(F)[C@@H](O)C[C@@]21C [DEXAMETHASONE ACETATE]
– | – | – | – | – | – | – | – | > 30 µM | > 10 µM | Cn1c(=O)cc(N2CCC[C@@H](N)C2)n(Cc2ccccc2C#N)c1=O [ALOGLIPTIN]
